Test system: selected panel of PTPs (mPTPB, SHP2, PTP1B, CD45, LYP, FAP-1)
Test: PTP activity assay, selected panel of PTPs
Assay type: biochemical
Conditions: pH 7, 25 °C

| Structure (SMILES) | PTP inhibitory activity (in words) |
| --- | --- |
| Oc1cc2ccccc2cc1C(O)(C(F)(F)F)C(F)(F)F [1f] | the most potent one |
| Cc1ccc(O)c(C(O)(C(F)(F)F)C(F)(F)F)c1 [1b] | moderate activity |
| O=C(COc1ccc2cc(C(O)(C(F)(F)F)C(F)(F)F)c(O)cc2c1)NC12CC3CC(CC(C3)C1)C2 [7d] | moderate activities |
| O=C(COc1ccc2cc(C(O)(C(F)(F)F)C(F)(F)F)c(O)cc2c1)NCCc1ccc(Cl)cc1Cl [7h] | moderate activities |
| O=C(COc1ccc2cc(C(O)(C(F)(F)F)C(F)(F)F)c(O)cc2c1)NC1c2ccccc2-c2ccccc21 [7i] | moderate activities |
| OC(c1ccccc1)(C(F)(F)F)C(F)(F)F [1a] | No appreciable activity |
| O=C(COc1ccc2cc(C(O)(C(F)(F)F)C(F)(F)F)c(O)cc2c1)N1c2ccccc2Sc2ccccc21 [7p] | very high activity |

Source: article PMC4982551 (MedChemComm, 2016)
